In patent US5223526A, “Pyrazole carboxanilide fungicides and use” (Monsanto Company, priority 1992, dated 1993):

Assays:
Botrytis cinerea [1] = assay: Vine grey mold (grape berries); type: in vivo; conditions: average of six berries, 7-10 days; for pest or weed control at 50 ppm: grape berries treated with 50 ppm, read-out: % DISEASE CONTROL 50 ppm; for pest or weed control at 200 ppm: grape berries treated with 200 ppm, read-out: % DISEASE CONTROL 200 ppm
How it was run: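 Preventive berry test: compound at 50 or 200 ppm (acetone/water, 0.05% Tween 20) applied one day before inoculation with 10^6 spores/mL Botrytis conidia. After 7-10 days at 20 °C under 12 h light, infected surface area rated; disease control expressed as percent reduction from control mean; repeated-test values averaged.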

Botrytis cinerea [2] = assay: Eggplant grey mold; type: in vivo; design: scale not given here; conditions: inoculated 24 h later, rated after 3-4 days; for Disease Control Rating at 20 ppm: eggplant sprayed with 20 ppm; for Disease Control Rating at 100 ppm: eggplant sprayed with 100 ppm; for Disease Control Rating at 500 ppm: eggplant sprayed with 500 ppm
How it was run: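 Protective test: compound formulations (2:3 acetone:water, 0.5% Tween 20; 500, 100 or 20 ppm) sprayed on 14-18-day-old plants, with spore inoculum (4×10^6 spore/mL) applied a day later. Disease control rated on Botrytis lesions after 3-4 days at 23 °C and 100% humidity.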

succinate dehydrogenase = target: T1, succinate dehydrogenase (Botrytis cinerea, UniProt A0A384J5E4+A0A384J8V8+A0A384JHJ5); assay: Enzyme inhibition: succinate dehydrogenase activity in Botrytis cinerea mitochondria (DCPIP reduction); type: biochemical; conditions: concentration required to inhibit the rate of DCPIP reduction by 50%; Botrytis cinerea isolate Nick mitochondria; read-out: I50 (μM conc.)
T1 construct: succinate-DCPIP reductase assay with KCN
How it was run: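 Crude mitochondria from Botrytis cinerea isolate Nick mycelia, prepared by bead-beating and differential centrifugation, started reactions. SDH activity followed as DCPIP reduction at 600 nm in 50 mM K-phosphate pH 7.2 with 1 mM KCN, 45 μM DCPIP, 17 mM succinate, 1% acetone. I50 from semilog inhibition plots, corrected for succinate-free rates.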

Rhizoctonia solani = assay: Rice sheath blight; type: in vivo; design: scale not given here; conditions: inoculated two days later, rated after 7 days, average of five plants; for Disease Control Rating at 0.5 mg/mL: foliage and soil sprayed with 0.5 mg/mL; for Disease Control Rating at 0.02 mg/mL: foliage and soil sprayed with 0.02 mg/mL; for Disease Control Rating at 0.1 mg/mL: foliage and soil sprayed with 0.1 mg/mL
How it was run: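 Rice plants 11–15 days old had foliage and soil sprayed with 0.5, 0.1 or 0.02 mg/mL Compound A in water/acetone/Tween 20, then kept in flooded trays. Two days later, rice-grain Rhizoctonia solani inoculum went to plant bases; disease control scored versus untreated after 7 days at 25 °C, high humidity, averaging five plants.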

T1 sequence (A0A384J5E4 1-300): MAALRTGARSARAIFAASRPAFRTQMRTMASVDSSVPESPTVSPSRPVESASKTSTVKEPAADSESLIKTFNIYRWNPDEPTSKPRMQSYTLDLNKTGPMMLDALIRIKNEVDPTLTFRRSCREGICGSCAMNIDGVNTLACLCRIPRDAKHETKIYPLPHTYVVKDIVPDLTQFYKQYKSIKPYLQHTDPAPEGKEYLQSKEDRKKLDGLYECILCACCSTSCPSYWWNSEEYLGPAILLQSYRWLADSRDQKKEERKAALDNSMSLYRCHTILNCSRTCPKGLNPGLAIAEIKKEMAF
T1 sequence (A0A384J8V8 1-189): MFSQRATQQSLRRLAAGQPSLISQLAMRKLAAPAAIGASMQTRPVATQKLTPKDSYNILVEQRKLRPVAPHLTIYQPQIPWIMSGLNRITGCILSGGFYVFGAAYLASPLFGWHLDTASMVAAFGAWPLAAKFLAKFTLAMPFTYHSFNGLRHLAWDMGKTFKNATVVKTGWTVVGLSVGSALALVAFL
T1 sequence (A0A384JHJ5 1-192): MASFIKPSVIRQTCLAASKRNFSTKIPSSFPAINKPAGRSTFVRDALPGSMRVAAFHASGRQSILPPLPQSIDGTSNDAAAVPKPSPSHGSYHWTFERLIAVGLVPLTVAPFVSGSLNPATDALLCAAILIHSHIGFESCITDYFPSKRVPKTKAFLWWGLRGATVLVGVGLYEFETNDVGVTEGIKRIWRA
T1 sequence (A0A384K456 1-647 partner): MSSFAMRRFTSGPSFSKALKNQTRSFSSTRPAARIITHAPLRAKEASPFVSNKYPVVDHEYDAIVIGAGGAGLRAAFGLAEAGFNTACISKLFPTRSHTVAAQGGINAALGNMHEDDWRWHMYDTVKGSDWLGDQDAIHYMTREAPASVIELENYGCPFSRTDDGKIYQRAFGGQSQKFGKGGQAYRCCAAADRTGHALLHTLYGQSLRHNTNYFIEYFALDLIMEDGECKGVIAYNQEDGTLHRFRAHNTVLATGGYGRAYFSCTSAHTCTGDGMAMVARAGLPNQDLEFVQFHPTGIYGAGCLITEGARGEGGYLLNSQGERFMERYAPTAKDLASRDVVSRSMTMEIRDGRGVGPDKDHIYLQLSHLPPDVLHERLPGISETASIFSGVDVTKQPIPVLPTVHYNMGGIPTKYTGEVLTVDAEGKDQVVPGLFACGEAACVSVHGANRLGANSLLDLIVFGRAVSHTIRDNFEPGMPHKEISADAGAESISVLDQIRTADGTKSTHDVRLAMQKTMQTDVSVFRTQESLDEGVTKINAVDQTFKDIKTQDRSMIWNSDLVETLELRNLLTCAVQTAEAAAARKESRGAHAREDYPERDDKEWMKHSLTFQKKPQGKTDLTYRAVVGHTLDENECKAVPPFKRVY

SMILES | pest or weed control at 50 ppm (Botrytis cinerea [1]) [%] | pest or weed control at 200 ppm (Botrytis cinerea [1]) [%] | Disease Control Rating at 20 ppm (Botrytis cinerea [2]) | Disease Control Rating at 100 ppm (Botrytis cinerea [2]) | Disease Control Rating at 500 ppm (Botrytis cinerea [2]) | IC50 (succinate dehydrogenase) [µM] | Disease Control Rating at 0.5 mg/mL (Rhizoctonia solani) | Disease Control Rating at 0.02 mg/mL (Rhizoctonia solani) | Disease Control Rating at 0.1 mg/mL (Rhizoctonia solani)
Cn1cc(C(=O)Nc2ccccc2C=C2CCCC2)c(C(F)(F)F)n1 [Example 127, 1H-pyrazole-4-carboxamide, N-[2-(cyclopentylidenemethyl)phenyl]-1-methyl-3-(trifluoromethyl)-] | 12 | 52 | 0 | 0 | 1 | 0.083 | 2 |  | 
Cn1cc(C(=O)Nc2ccccc2C2=CCSCC2)c(C(F)F)n1 [Example 144, 1H-pyrazole-4-carboxamide, 3-(difluoromethyl)-N-[2-(5,6-dihydro-2H-thiopyran-4-yl)phenyl]-1-methyl-] | 15 | 37 | 0 | 0 | 1 | 0.037 | 3 |  | 
Cc1cccc(NC(=O)c2cn(C)nc2C(F)(F)F)c1C1CCCCC1 [Example 19, 1H-pyrazole-4-carboxamide, N-(2-cyclohexyl-3-methylphenyl)-1-methyl-3-(trifluoromethyl)-] | 32 | 52 | 1 | 2 | 3 | 0.028 | 3 | 1 | 3
Cn1cc(C(=O)Nc2ccccc2CC2=CCCC2)c(C(F)F)n1 [Example 117, 1H-pyrazole-4-carboxamide, N-[2-(1-cyclopenten-1-ylmethyl)phenyl]-3-(difluoromethyl)-1-methyl-] | 80 | 19 | 0 | 1 | 2 | 0.17 | 0 |  | 
CC1CC=C(c2ccccc2NC(=O)c2cn(C)nc2C(F)(F)F)C1 (stereo not drawn) [Example 150, 1H-pyrazole-4-carboxamide, N-[2-(4-methyl-1-cyclopenten-1-yl)phenyl]-1-methyl-3-(trifluoromethyl)-] | 40 | 100 | 0 | 0 | 2 | 0.026 | 3 |  | 
Cn1cc(C(=O)Nc2ccccc2C2CCCC2)c(C(F)(F)F)n1 [Example 8, 1H-pyrazole-4-carboxamide, N-(2-cyclopentylphenyl)-1-methyl-3-(trifluoromethyl)-] | 37 | 83 |  |  | 0 | 0.016 | 0 |  | 
Cc1nn(C)cc1C(=O)Nc1ccccc1[C@@H]1C[C@H]2CC[C@@H]1C2 (relative stereo) [Example 71, 1H-pyrazole-4-carboxamide, N-(2-bicyclo[2.2.1]hept-2-ylphenyl)-1,3-dimethyl-, exo-] | 25 | 57 |  |  | 0 | 0.046 | 3 | 1 | 3
Cn1cc(C(=O)Nc2ccccc2C2CCCC2)c(Br)n1 [Example 64, 1H-pyrazole-4-carboxamide, 3-bromo-N-(2-cyclopentylphenyl)-1-methyl-] | 10 | 28 | 1 | 1 | 2 | 0.047 | 3 | 1 | 3
Cn1cc(C(=O)Nc2ccccc2CC2CCCCCC2)c(C(F)F)n1 [Example 145, 1H-pyrazole-4-carboxamide, 1-methyl-N-[2-(cycloheptylmethyl)-phenyl]-3-(difluoromethyl)-] | 0 | 0 | 0 | 0 | 0 | 0.025 | 3 |  | 
CC(c1ccccc1NC(=O)c1cn(C)nc1C(F)(F)F)C1CCCC1 (stereo not drawn) [Example 53, 1H-pyrazole-4-carboxamide, N-[2-(1-cyclopentylethyl)phenyl]-1-methyl-3-(trifluoromethyl)-] | 40 | 70 |  |  | 0 | 0.021 | 3 | 2 | 3
Cn1cc(C(=O)Nc2ccccc2OCCC2CCCC2)c(C(F)(F)F)n1 [Example 55, 1H-pyrazole-4-carboxamide, N-[2-(2-cyclopentylethoxy)phenyl]-1-methyl-3-(trifluoromethyl)-] | 11 | 0 |  |  | 0 | 0.027 | 0 |  | 
Cn1cc(C(=O)Nc2ccccc2C2=CC(C)(C)CC(C)(C)C2)c(C(F)(F)F)n1 [Example 123, 1H-pyrazole-4-carboxamide, 1-methyl-N-[2-(3,3,5,5-tetramethyl-1-cyclohexen-1-yl)phenyl]-3-(trifluoromethyl)-] | 14 | 36 | 0 | 0 | 0 | 0.023 | 0 |  | 
Cn1cc(C(=O)Nc2ccc(F)cc2C2CCCCC2)c(C(F)(F)F)n1 [Example 12, 1H-pyrazole-4 carboxamide, N-(2-cyclohexyl-4-fluorophenyl)-1-methyl-3-(trifluoromethyl)-] | 58 | 59 | 1 | 1 | 3 | 0.0089 | 2 |  | 
Cc1nn(C)cc1C(=O)Nc1ccccc1C1CCCCCCC1 [Example 41, 1H-pyrazole-4-carboxamide, N-(2-cyclooctylphenyl)-1,3-dimethyl-] | 34 | 37 | 0 | 0 | 3 | 0.021 | 3 | 1 | 3
Cn1nc(C(F)(F)F)c(C(=O)Nc2ccccc2C2CCCCC2)c1Cl [Example 87, 1H-pyrazole-4-carboxamide, 5-chloro-N-(2-cyclohexylphenyl)-1-methyl-3-(trifluoromethyl)-] | 61 | 46 |  |  | 0 | 0.059 | 2 |  | 
Cc1cc(C)c(C2CCCC2)c(NC(=O)c2cn(C)nc2C(F)(F)F)c1 [Example 31, 1H-pyrazole-4-carboxamide, N-(2-cyclopentyl-3,5-dimethylphenyl)-1-methyl-3-(trifluoromethyl)-] | 0 | 23 | 0 | 0 | 0 | 0.068 | 1 |  | 
Cn1cc(C(=O)Nc2ccccc2CC2CCCCC2)c(C(F)(F)F)n1 [Example 130, 1H-pyrazole-4-carboxamide, N-[2-(cyclohexylmethyl)phenyl]-1-methyl-3-(trifluoromethyl)-] | 2 | 21 | 0 | 0 | 0 | 0.37 | 2 |  | 
Cn1cc(C(=O)Nc2ccccc2C2=CCC(C(C)(C)C)CC2)c(C(F)F)n1 (stereo not drawn) [Example 132, 1H-pyrazole-4-carboxamide, 3-(difluoromethyl)-N-[2-[4-(1,1-dimethylethyl)-1-cyclohexen-1-yl]phenyl]-1-methyl-] | 50 | 51 |  |  | 0 | 0.0035 | 3 | 1 | 2
